Source: paper PMC12736120, “First-in-Human Phase I Clinical Trial of SLC-391, a Novel and Selective AXL Inhibitor, in Patients with Advanced Solid Tumours” (Pharmaceuticals, 2025)
Where two headings read alike, the source gives them in different places.

Assay: Plasma pharmacokinetics, QD and BID cohorts (non-compartmental)
Assay type: in vivo, human
Details: for Cmax / Tmax / AUC / AUC(0-t) / concentration at 21 days: human, plasma, oral; for concentration at 21 days: read-out: Cmin, range across cohorts
Experimental: PK parameters were calculated by standard non-compartmental methods for SLC-391. Due to the long half-life of SLC-391 compared to the dosing interval, it was not possible to calculate a number of PK parameters, including plasma half-life and rate of elimination. Accumulation was assessed from the mean accumulation ratio factor (AR factor) calculated as the repeated dose (C1D21) mean value/single dose (C1D1) mean value for the PK parameters Cmax, AUC0–12, and AUC0–last for each dose group.
During QD dosing, blood samples for determination of SLC-391 plasma concentrations were collected predose and at 0.5, 1, 2, 3, 4, 6, 8, and 24 h after SLC-391 administration on cycle 1 day 1 (C1D1) and cycle 1 day 21 (C1D21). During BID dosing, blood samples were collected predose and at 1, 2, 3, 4, 6, 8, and 12 h after the first daily dose (before the second daily dose). Where possible, further samples were then collected at 13, 14, 22, and 24 h after the initial dose (predose C1D2). Blood samples were also collected on C1D21 (steady state) predose and at 1, 2, 3, 4, 6, 8, and 12 h after the first daily dose (before the second daily dose). Where possible, further samples were then collected at 13, 14, 22, and 24 h after the initial C1D21 dose (predose C2D1). An additional blood sample was also taken, where possible, at the end of treatment (EOT) visit.
After collection, blood samples were centrifuged, and plasma was separated and stored at −80 °C. Plasma concentrations of SLC-391 were measured by a validated analytical method involving liquid–liquid extraction followed by high-performance liquid chromatography (HPLC)–mass/mass spectroscopy assay using a Water Quattro Premier tandem quadrupole mass spectroscopy with Waters MassLynx data acquisition and processing software. Plasma analysis was carried out by Microconstants (San Diego, CA, USA) in compliance with the US FDA GLP regulations. The calibration range of the assay was from 0.100 to 100 ng/mL. Quality control samples prepared at 4 different analyte concentrations were analysed with each batch of samples against a separately prepared calibration standard. PK parameters were collected following single (day 1) and repeat dose (day 21) administration. PK parameters were summarised with appropriate descriptive statistics where possible (e.g., mean, geometric mean, median, maximum, minimum, and coefficient of variation). Descriptive PK parameters were determined by standard non-compartmental methods based on the concentration–time data of each subject. The nominal time was used for descriptive statistics calculations, and the actual sample collection times were used in PK analyses. PK analyses were performed using validated Phoenix WinNonlin Professional 8.3 (Certara, L.P., St. Louis, MO, USA).

Nc1ncc(-c2cnn(C3CCNCC3)c2)cc1-c1nnc(CC2CC2)o1 [SLC-391, 3-(5-[cyclopropylmethyl]-1,3,4-oxadiazol-2-yl)-5-(1-[piperidin-4-yl]-1H-pyrazol-4-yl)-pyridin-2-amine]
Cmax (110 mg, 110 mg BID, C1D1, median, n=3, plasma, read-out: Cmax): 93.1 ng/mL
Tmax (110 mg, 110 mg BID, C1D1, median, n=3, plasma, read-out: Tmax): 3 h
AUC (110 mg, 110 mg BID, C1D21, mean, n=3, plasma, read-out: AUC0–12): 2260 ng·h/mL
AUC(0-t) (110 mg, 110 mg BID, C1D21, mean, n=3, plasma, read-out: AUC0–last): 4280 ng·h/mL
Cmax (110 mg, 110 mg BID, C1D21, mean, n=3, plasma, read-out: Cmax): 249 ng/mL
Tmax (110 mg, 110 mg BID, C1D21, mean, n=3, plasma, read-out: Tmax): 2.4 h
AUC (110 mg, 110 mg BID, C1D21, median, n=3, plasma, read-out: AUC0–12): 1390 ng·h/mL
AUC(0-t) (110 mg, 110 mg BID, C1D21, median, n=3, plasma, read-out: AUC0–last): 2560 ng·h/mL
Cmax (110 mg, 110 mg BID, C1D21, median, n=3, plasma, read-out: Cmax): 187 ng/mL
Tmax (110 mg, 110 mg BID, C1D21, median, n=3, plasma, read-out: Tmax): 2.1 h
AUC (125 mg, QD, C1D1, read-out: AUC0–12, Mean): 672 ng·h/mL
AUC (125 mg, QD, C1D1, read-out: AUC0–12, Median): 877 ng·h/mL
AUC(0-t) (125 mg, QD, C1D1, read-out: AUC0–last, Mean): 1040 ng·h/mL
AUC(0-t) (125 mg, QD, C1D1, read-out: AUC0–last, Median): 1280 ng·h/mL
Cmax (125 mg, QD, C1D1, read-out: Cmax, Mean): 103 ng/mL
Cmax (125 mg, QD, C1D1, read-out: Cmax, Median): 123 ng/mL
Tmax (125 mg, QD, C1D1, read-out: Tmax, Mean): 2 h
Tmax (125 mg, QD, C1D1, read-out: Tmax, Median): 2.1 h
AUC (125 mg, QD, C1D21, read-out: AUC0–12, Mean): 1120 ng·h/mL
AUC (125 mg, QD, C1D21, read-out: AUC0–12, Median): 1380 ng·h/mL
AUC(0-t) (125 mg, QD, C1D21, read-out: AUC0–last, Mean): 1840 ng·h/mL
AUC(0-t) (125 mg, QD, C1D21, read-out: AUC0–last, Median): 2340 ng·h/mL
Cmax (125 mg, QD, C1D21, read-out: Cmax, Mean): 147 ng/mL
Cmax (125 mg, QD, C1D21, read-out: Cmax, Median): 188 ng/mL
Tmax (125 mg, QD, C1D21, read-out: Tmax, Mean): 2 h
Tmax (125 mg, QD, C1D21, read-out: Tmax, Median): 2 h
AUC (150 mg, 150 mg BID, C1D1, mean, n=5, plasma, read-out: AUC0–12): 1050 ng·h/mL
AUC(0-t) (150 mg, 150 mg BID, C1D1, mean, n=6, plasma, read-out: AUC0–last): 2330 ng·h/mL
Cmax (150 mg, 150 mg BID, C1D1, mean, n=6, plasma, read-out: Cmax): 236 ng/mL
Tmax (150 mg, 150 mg BID, C1D1, mean, n=6, plasma, read-out: Tmax): 9 h
AUC (150 mg, 150 mg BID, C1D1, median, n=5, plasma, read-out: AUC0–12): 1070 ng·h/mL
AUC(0-t) (150 mg, 150 mg BID, C1D1, median, n=6, plasma, read-out: AUC0–last): 1680 ng·h/mL
Cmax (150 mg, 150 mg BID, C1D1, median, n=6, plasma, read-out: Cmax): 208 ng/mL
Tmax (150 mg, 150 mg BID, C1D1, median, n=6, plasma, read-out: Tmax): 2 h
AUC (150 mg, 150 mg BID, C1D21, mean, n=6, plasma, read-out: AUC0–12): 4620 ng·h/mL
AUC(0-t) (150 mg, 150 mg BID, C1D21, mean, n=6, plasma, read-out: AUC0–last): 9080 ng·h/mL
Cmax (150 mg, 150 mg BID, C1D21, mean, n=6, plasma, read-out: Cmax): 527 ng/mL
Tmax (150 mg, 150 mg BID, C1D21, mean, n=6, plasma, read-out: Tmax): 3.5 h
AUC (150 mg, 150 mg BID, C1D21, median, n=6, plasma, read-out: AUC0–12): 4860 ng·h/mL
AUC(0-t) (150 mg, 150 mg BID, C1D21, median, n=6, plasma, read-out: AUC0–last): 10000 ng·h/mL
Cmax (150 mg, 150 mg BID, C1D21, median, n=6, plasma, read-out: Cmax): 549 ng/mL
Tmax (150 mg, 150 mg BID, C1D21, median, n=6, plasma, read-out: Tmax): 2.9 h
AUC (150 mg, QD, C1D1, read-out: AUC0–12, Mean): 946 ng·h/mL
AUC (150 mg, QD, C1D1, read-out: AUC0–12, Median): 892 ng·h/mL
AUC(0-t) (150 mg, QD, C1D1, read-out: AUC0–last, Mean): 1610 ng·h/mL
AUC(0-t) (150 mg, QD, C1D1, read-out: AUC0–last, Median): 1460 ng·h/mL
Cmax (150 mg, QD, C1D1, read-out: Cmax, Mean): 156 ng/mL
Cmax (150 mg, QD, C1D1, read-out: Cmax, Median): 126 ng/mL
Tmax (150 mg, QD, C1D1, read-out: Tmax, Mean): 5.5 h
Tmax (150 mg, QD, C1D1, read-out: Tmax, Median): 2.1 h
AUC (150 mg, QD, C1D21, read-out: AUC0–12, Mean): 2140 ng·h/mL
AUC (150 mg, QD, C1D21, read-out: AUC0–12, Median): 2080 ng·h/mL
AUC(0-t) (150 mg, QD, C1D21, read-out: AUC0–last, Mean): 3620 ng·h/mL
AUC(0-t) (150 mg, QD, C1D21, read-out: AUC0–last, Median): 3510 ng·h/mL
Cmax (150 mg, QD, C1D21, read-out: Cmax, Mean): 254 ng/mL
Cmax (150 mg, QD, C1D21, read-out: Cmax, Median): 269 ng/mL
Tmax (150 mg, QD, C1D21, read-out: Tmax, Mean): 2.6 h
Tmax (150 mg, QD, C1D21, read-out: Tmax, Median): 2 h
AUC (175 mg, QD, C1D1, n 1, read-out: AUC0–12, Mean): 1500 ng·h/mL
AUC (175 mg, QD, C1D1, n 1, read-out: AUC0–12, Median): 1500 ng·h/mL
AUC(0-t) (175 mg, QD, C1D1, read-out: AUC0–last, Mean): 1580 ng·h/mL
AUC(0-t) (175 mg, QD, C1D1, read-out: AUC0–last, Median): 1580 ng·h/mL
Cmax (175 mg, QD, C1D1, read-out: Cmax, Mean): 357 ng/mL
Cmax (175 mg, QD, C1D1, read-out: Cmax, Median): 357 ng/mL
Tmax (175 mg, QD, C1D1, read-out: Tmax, Mean): 2 h
Tmax (175 mg, QD, C1D1, read-out: Tmax, Median): 2 h
AUC (200 mg, 200 mg BID, C1D1, mean, n=3, plasma, read-out: AUC0–12): 985 ng·h/mL
AUC(0-t) (200 mg, 200 mg BID, C1D1, mean, n=3, plasma, read-out: AUC0–last): 2050 ng·h/mL
Cmax (200 mg, 200 mg BID, C1D1, mean, n=3, plasma, read-out: Cmax): 174 ng/mL
Tmax (200 mg, 200 mg BID, C1D1, mean, n=3, plasma, read-out: Tmax): 9.7 h
AUC (200 mg, 200 mg BID, C1D1, median, n=3, plasma, read-out: AUC0–12): 1130 ng·h/mL
AUC(0-t) (200 mg, 200 mg BID, C1D1, median, n=3, plasma, read-out: AUC0–last): 2170 ng·h/mL
Cmax (200 mg, 200 mg BID, C1D1, median, n=3, plasma, read-out: Cmax): 178 ng/mL
Tmax (200 mg, 200 mg BID, C1D1, median, n=3, plasma, read-out: Tmax): 3.1 h
AUC (200 mg, 200 mg BID, C1D21, mean, n=2, plasma, read-out: AUC0–12): 8550 ng·h/mL
AUC(0-t) (200 mg, 200 mg BID, C1D21, mean, n=2, plasma, read-out: AUC0–last): 16400 ng·h/mL
Cmax (200 mg, 200 mg BID, C1D21, mean, n=2, plasma, read-out: Cmax): 874 ng/mL
Tmax (200 mg, 200 mg BID, C1D21, mean, n=2, plasma, read-out: Tmax): 2.4 h
AUC (200 mg, 200 mg BID, C1D21, median, n=2, plasma, read-out: AUC0–12): 8550 ng·h/mL
AUC(0-t) (200 mg, 200 mg BID, C1D21, median, n=2, plasma, read-out: AUC0–last): 16400 ng·h/mL
Cmax (200 mg, 200 mg BID, C1D21, median, n=2, plasma, read-out: Cmax): 874 ng/mL
Tmax (200 mg, 200 mg BID, C1D21, median, n=2, plasma, read-out: Tmax): 2.4 h
AUC(0-t) (BID, 75 mg to 200 mg, C1D1, read-out: mean AUC0–last, range across cohorts): 1170 to 2330 ng·h/mL
Cmax (BID, 75 mg to 200 mg, C1D1, read-out: mean Cmax, range across cohorts): 95.2 to 236 ng/mL
Tmax (BID, 75 mg to 200 mg, C1D1, read-out: median Tmax, range across cohorts): 2 to 3.1 h
AUC(0-t) (BID, 75 mg to 200 mg, C1D21, read-out: mean AUC0–last, range across cohorts): 4280 to 16400 ng·h/mL
Cmax (BID, 75 mg to 200 mg, C1D21, read-out: mean Cmax, range across cohorts): 249 to 874 ng/mL
Tmax (BID, 75 mg to 200 mg, C1D21, read-out: median Tmax, range across cohorts): 1.9 to 2.9 h
AUC(0-t) (QD, 25 mg to 150 mg, C1D21, read-out: mean AUC0–last, range across cohorts): 461 to 3620 ng·h/mL
Cmax (QD, 25 mg to 150 mg, C1D21, read-out: mean Cmax, range across cohorts): 41.9 to 436 ng/mL
Tmax (QD, 25 mg to 150 mg, C1D21, read-out: median Tmax, range across cohorts): 1.5 to 2.1 h
AUC(0-t) (QD, 25 mg to 175 mg, C1D1, read-out: mean AUC0–last, range across cohorts): 270 to 1580 ng·h/mL
Cmax (QD, 25 mg to 175 mg, C1D1, read-out: mean Cmax, range across cohorts): 32.5 to 357 ng/mL
Tmax (QD, 25 mg to 175 mg, C1D1, read-out: median Tmax, range across cohorts): 0.9 to 2.1 h
concentration at 21 days (after 21 days of BID dosing): 146 to 472 ng/mL
concentration at 21 days (after 21 days of QD dosing): 10.3 to 152 ng/mL
Tmax (overall, as stated in the abstract, read-out: median Tmax): 2 h
steady state of plasma concentrations (multiple doses, QD and BID): appeared to reach a steady state by day 21
